These results are taken from patent US9683014B2, “Dipeptide mimetics of NGF and BDNF neurotrophins” (UCHREZHDENIE ROSSIISKOI AKADEMII MEDITSYNSKIKH NAUK …, priority 2009, dated 2017).

One data set relates to HT-22 cells. The procedure: The determination of cell viability was carried out by MTT test. MTT is a water soluble tetrazolium salt of yellow color which readily permeates cells. In living cells, MTT is converted into water insoluble formazan crystals of violet color. At the end of an experiment the growth medium was replaced with an MTT solution (0.5 mg/ml) and incubated for 30 min at 37° C. and 5% CO2. The MTT solution was then removed from the wells and DMSO was added to dissolve the formazan precipitate. Then the optical density was measured using a Multiscan (Thermo) spectrophotometer at a wavelength of 600 nm.

Another data set deals with Hsp70. Nature of the data set: Western blot of Hsp70 in HT-22 cells. It counts as cell-based, mouse. Conditions: 24 h after addition; GK-1, GK-2 10^−8 and 10^−5 M; GK-3 10^−6 M; GK-4 10^−7 M; GK-5 10^−6 M. How it is done:
The amount of Hsp70, Hsp32 and pTrkA was determined in the cytoplasmic fraction of HT-22 neuronal cells. For heat shock proteins, a test compound was added to the culture 24 hours prior to testing, before the cells were washed off the culture liquid with PBS. For pTrkA, a test compound was added to the culture immediately prior to the cell lysis just for 1 or 2 min, before the cells were washed off the culture liquid with PBS. Then the cells were mixed with the lysis buffer (50 mM Tris-HCl, 5 mM EDTA, 1 mM DTT, 1% Triton X-100, pH 7.5) at 4° C. and lysed for 5 min, then scraped off, transferred into a 1.5 ml centrifuge tube and centrifuged at 13000 rpm and 4° C. for 10 min. The supernatant containing cytosolic proteins was assayed by electrophoresis and immunoblotting. Proteins were separated on a 10% polyacrylamide gel (PAAG) and transferred from PAAG onto a PVDF membrane by electroelution for 45 min. Western blots were pre-incubated for 1 h in a TBST solution containing 1% Tween-20 and supplemented with 5% (w/v) skim milk. Western blots were then incubated with the primary polyclonal anti-Hsp32 antibody diluted 1:1000 or primary monoclonal anti-Hsp70 antibody diluted 1:1000 or primary monoclonal anti-phosphorylated tyrosine kinase A antibody diluted 1:1000 for 1 hour. Then the blots were washed and incubated with a secondary antibody conjugated to horseradish peroxidase (diluted 1:2000) for 1 hour. The detection of Hsp70, Hsp32 and pTrkA was carried out by the ECL reaction on a Kodak film.
A general note: A western blot detects proteins with antibodies after separation by electrophoresis.

Another data set concerns C57B1/6 mice. The conditions noted are these: 1.0 mg/kg i.p. 24 h prior to MPTP 30 mg/kg i.p.; 60 min after MPTP; active control 8. How it is done: The test compound was administered intraperitoneally to male C57B1/6 mice weighing 22-25 g at a preselected dose of 1.0 mg/kg at 24 hours prior to the MPTP injection (30 mg/kg i.p.). The animals were placed in the open-field device 60 min after the MPTP injection. Animal's horizontal and vertical motor activities were monitored for 2 minutes. Passive control group was represented by animals treated with distilled water instead of MPTP. […] The treatment group was treated with GK-2 followed by MPTP. Statistical data treatment was carried out using the Mann-Whitney U-test.

For a further data set, the system named is HT-22 neuronal cell line. As to the kind of experiment: Viability of HT-22 neuronal cell line without damaging factors (MTT test). It counts as cell-based, mouse. The conditions noted are these: added at plating and every 24 h for 10 days, control 0.283 ± 0.039. How it is done: The rat adrenal […] pheochromocytoma cell line PC12 was obtained from the Cell Culture Museum, RAN Institute of Molecular Genetics. The immortalized mouse hippocampal cell line HT-22 was a gift from Prof. F. Viegant, Utrecht University, the Netherlands.
The cells were grown in DMEM medium containing 5% FBS and 2 mM L-glutamine. The cells were incubated at 37° C. and 5% CO2. The growth medium was changed at 24 hours after inoculation and every 3 days thereafter. The cells were re-plated every week into culture flasks with a total area of 75 cm^2.
All types of cells were plated in DMEM medium.
(Tetrazolium assays rely on reduction of a dye to a coloured formazan, in cell work by metabolically active cells.)

Marks after values point to notes of the source that are not given here.

On to `NCCCC[C@H](NC(=O)[C@H](CCC(=O)O)NC(=O)CCC(=O)O)C(=O)NCCCCCCNC(=O)[C@H](CCCCN)NC(=O)[C@H](CCC(=O)O)NC(=O)CCC(=O)O` [GK-2, bis-(N-monosuccinyl-glutamyl-lysine) hexamethylenediamide], for which the “Optical density (MTT)” value in the data set on HT-22 cells (10^−8M, 24 h prior to glutamate, control 0.178 ± 0.010, glutamate 0.145 ± 0.013) is 0.179 ± 0.007^; in the data set on HT-22 neuronal cell line (10^−5M) it was 0.357 ± 0.051; in the data set on HT-22 neuronal cell line (10^−8M) it was 0.375 ± 0.063. Besides, the “protective effect against glutamate cytotoxicity” value in the data set with HT-22 cells (added 24 hours prior to glutamate) is given as “protective effect”. The “amount of Hsp70” value in the data set with Hsp70 was “increase”. Moreover, the “Number of sectors crossed (% of passive control)” value in the data set with C57B1/6 mice is 38*^+ % of passive control.
